In PubChem BioAssay AID1615 (Sanford-Burnham Center for Chemical Genomics, 2009):
Values after ≈ are worked out from the molar mass of the structure shown.

Test system: aqueous buffer solubility, UV absorbance, 18 h equilibrium
Assay: aqueous buffer solubility of compounds, late-stage follow-up, ADME assay, biophysical, UV absorbance, pH 5.0, 6.2, 7.4 (AID 1615)
Conditions: at 300 µM, stronger effect = higher value

solubility: 18 µg/mL (≈ 45.3 µM)
solubility (measured here: solubility at pH 5.0): 8.4 µg/mL (≈ 21.1 µM)
solubility (measured here: solubility at pH 6.2): 8.4 µg/mL (≈ 21.1 µM)
SMILES: C=CCn1c(SCC(=O)c2ccc(O)c(O)c2)nnc1-c1ccccc1OC
